How the values were obtained:
HL-60 [1] = assay: Inhibition of human KSR1/KSR2 in HL-60 cells lysate assessed as reduction of labeling of acyl-phosphate ATP probe at 100 nM
[2] = molecular target: STE20-like serine/threonine-protein kinase SLK (Homo sapiens) (UniProt Q9H2G2); assay: Inhibition of human SLK in HL-60 cells lysate assessed as reduction of labeling of acyl-phosphate ATP probe at 100 nM
HL-60 [3] = assay: Inhibition of human CDK11/CDK8 in HL-60 cells lysate assessed as reduction of labeling of acyl-phosphate ATP probe at 100 nM
[4] = molecular target: Tyrosine-protein kinase Lyn (Homo sapiens) (UniProt P07948); assay: Inhibition of human LYN in HL-60 cells lysate assessed as reduction of labeling of acyl-phosphate ATP probe at 100 nM; type: cell-free
[5] = molecular target: T1, Interleukin-1 receptor-associated kinase 4 (Homo sapiens) (UniProt Q9NWZ3); assay: Inhibition of human IRAK4 in HL-60 cells lysate assessed as reduction of labeling of acyl-phosphate ATP probe at 100 nM; type: cell-free
T1 sequence (whole entry): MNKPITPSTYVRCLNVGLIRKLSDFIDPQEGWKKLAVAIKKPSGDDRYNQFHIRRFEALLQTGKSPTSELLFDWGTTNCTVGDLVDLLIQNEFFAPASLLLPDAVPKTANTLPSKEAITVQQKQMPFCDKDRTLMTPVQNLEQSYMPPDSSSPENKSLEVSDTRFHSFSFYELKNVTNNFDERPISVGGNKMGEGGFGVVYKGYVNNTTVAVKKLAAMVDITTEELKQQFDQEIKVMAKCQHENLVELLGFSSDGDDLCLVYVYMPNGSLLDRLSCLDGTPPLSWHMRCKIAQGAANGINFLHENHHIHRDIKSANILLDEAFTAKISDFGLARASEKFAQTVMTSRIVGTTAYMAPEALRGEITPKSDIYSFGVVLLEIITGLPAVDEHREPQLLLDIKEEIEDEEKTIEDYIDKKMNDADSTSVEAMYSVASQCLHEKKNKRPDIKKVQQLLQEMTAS

[6] = molecular target: T2, Serine/threonine-protein kinase TAO2 (Homo sapiens) (UniProt Q9UL54); assay: Inhibition of human TAO2 in HL-60 cells lysate assessed as reduction of labeling of acyl-phosphate ATP probe at 100 nM; type: cell-free
T2 sequence (whole entry): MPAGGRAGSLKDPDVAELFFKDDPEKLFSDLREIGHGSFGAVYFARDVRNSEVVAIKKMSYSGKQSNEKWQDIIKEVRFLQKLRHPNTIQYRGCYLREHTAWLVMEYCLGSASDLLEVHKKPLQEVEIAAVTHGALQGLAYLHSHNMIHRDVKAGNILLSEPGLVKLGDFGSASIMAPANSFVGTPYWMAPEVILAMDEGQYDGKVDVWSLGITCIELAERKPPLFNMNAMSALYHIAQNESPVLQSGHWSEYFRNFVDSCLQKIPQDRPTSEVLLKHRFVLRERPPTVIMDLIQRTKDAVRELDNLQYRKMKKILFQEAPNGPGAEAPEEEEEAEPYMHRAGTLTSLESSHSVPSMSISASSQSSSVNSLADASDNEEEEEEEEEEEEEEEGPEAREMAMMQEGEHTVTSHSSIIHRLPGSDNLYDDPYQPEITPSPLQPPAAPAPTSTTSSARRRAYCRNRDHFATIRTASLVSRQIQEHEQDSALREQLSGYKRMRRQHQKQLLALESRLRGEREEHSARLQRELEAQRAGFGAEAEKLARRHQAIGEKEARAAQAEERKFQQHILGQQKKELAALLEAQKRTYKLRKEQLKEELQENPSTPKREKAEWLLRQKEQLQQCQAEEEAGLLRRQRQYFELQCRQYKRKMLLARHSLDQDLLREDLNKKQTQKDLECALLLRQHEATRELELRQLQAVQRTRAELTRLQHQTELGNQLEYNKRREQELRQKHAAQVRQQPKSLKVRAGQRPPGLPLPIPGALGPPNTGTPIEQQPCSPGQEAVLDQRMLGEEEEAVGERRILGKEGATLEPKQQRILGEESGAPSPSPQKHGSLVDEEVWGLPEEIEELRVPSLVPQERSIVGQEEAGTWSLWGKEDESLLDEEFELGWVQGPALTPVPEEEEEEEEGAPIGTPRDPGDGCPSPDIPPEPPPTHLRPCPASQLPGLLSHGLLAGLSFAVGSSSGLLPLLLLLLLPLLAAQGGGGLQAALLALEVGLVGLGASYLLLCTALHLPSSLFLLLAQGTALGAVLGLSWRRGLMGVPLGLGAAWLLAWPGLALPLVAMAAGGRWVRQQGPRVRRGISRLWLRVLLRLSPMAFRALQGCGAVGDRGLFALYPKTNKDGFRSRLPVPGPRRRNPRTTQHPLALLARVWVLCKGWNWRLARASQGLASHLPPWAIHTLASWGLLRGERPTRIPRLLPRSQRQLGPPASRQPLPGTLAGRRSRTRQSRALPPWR

[7] = molecular target: T3, Scaffold protein ILK (Homo sapiens) (UniProt Q13418); assay: Inhibition of human ILK in HL-60 cells lysate assessed as reduction of labeling of acyl-phosphate ATP probe at 100 nM; type: cell-free
T3 sequence (whole entry): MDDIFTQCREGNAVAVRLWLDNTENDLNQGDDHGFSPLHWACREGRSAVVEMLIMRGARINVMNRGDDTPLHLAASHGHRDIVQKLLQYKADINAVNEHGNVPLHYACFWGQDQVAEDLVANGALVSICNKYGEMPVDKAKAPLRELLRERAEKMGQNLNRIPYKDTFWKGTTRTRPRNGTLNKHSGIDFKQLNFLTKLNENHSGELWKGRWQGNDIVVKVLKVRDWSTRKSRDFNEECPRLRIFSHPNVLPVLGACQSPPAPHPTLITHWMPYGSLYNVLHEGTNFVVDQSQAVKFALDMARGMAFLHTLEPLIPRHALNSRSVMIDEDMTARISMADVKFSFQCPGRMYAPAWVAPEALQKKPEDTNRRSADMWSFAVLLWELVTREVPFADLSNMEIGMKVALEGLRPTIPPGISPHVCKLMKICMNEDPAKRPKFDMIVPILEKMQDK

Sequence of STE20-like serine/threonine-protein kinase SLK (Homo sapiens) (Q9H2G2 whole entry, looked up): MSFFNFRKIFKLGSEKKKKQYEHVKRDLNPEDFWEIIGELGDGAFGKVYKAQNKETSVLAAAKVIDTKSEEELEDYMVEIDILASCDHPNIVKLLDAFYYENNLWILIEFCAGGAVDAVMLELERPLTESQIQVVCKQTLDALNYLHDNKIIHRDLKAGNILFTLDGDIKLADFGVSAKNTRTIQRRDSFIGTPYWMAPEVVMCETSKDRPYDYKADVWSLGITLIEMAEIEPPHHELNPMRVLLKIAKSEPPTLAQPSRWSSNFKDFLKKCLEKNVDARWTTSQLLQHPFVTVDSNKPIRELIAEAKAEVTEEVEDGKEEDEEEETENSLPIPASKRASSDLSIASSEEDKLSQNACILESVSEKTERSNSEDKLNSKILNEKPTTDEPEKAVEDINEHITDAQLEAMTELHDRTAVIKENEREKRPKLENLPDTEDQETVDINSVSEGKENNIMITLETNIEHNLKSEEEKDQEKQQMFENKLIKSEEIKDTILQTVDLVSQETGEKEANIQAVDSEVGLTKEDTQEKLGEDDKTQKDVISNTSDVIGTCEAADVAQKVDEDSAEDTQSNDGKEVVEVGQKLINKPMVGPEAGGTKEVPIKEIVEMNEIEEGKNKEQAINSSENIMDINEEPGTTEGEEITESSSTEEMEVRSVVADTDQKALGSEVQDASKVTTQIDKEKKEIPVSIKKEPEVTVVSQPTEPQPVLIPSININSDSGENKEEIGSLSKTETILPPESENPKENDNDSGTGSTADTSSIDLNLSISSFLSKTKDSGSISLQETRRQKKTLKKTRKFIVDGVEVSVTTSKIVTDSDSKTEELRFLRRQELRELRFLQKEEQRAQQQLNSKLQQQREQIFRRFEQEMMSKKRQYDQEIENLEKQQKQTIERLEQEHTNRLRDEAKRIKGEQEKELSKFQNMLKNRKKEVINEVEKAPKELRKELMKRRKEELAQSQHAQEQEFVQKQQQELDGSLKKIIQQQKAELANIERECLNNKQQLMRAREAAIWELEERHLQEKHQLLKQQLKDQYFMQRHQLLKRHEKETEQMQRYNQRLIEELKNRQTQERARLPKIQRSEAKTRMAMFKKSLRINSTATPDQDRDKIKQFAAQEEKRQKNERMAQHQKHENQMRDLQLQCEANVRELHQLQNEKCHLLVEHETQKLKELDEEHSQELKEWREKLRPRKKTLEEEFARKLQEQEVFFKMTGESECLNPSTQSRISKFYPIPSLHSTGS
Sequence of Tyrosine-protein kinase Lyn (Homo sapiens) (P07948 2-512 limits assumed): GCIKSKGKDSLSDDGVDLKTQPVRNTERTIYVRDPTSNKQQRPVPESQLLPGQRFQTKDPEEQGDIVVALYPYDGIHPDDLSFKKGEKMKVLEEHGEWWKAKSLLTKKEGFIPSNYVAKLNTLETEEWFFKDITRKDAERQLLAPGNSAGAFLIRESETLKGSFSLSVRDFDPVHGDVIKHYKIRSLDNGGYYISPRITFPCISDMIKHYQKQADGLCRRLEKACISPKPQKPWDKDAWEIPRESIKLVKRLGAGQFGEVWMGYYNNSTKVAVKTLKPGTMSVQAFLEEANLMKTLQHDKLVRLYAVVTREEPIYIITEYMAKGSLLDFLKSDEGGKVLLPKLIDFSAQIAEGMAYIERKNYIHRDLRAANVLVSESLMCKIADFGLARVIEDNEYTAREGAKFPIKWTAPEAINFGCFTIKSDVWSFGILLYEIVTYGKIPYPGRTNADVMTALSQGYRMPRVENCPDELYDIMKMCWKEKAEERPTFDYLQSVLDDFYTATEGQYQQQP

C[C@H]1COc2c(NCCCc3ccccn3)c(F)c(N)c3c(=O)c(C#N)cn1c23
< 35%: inhibition at 0.1 µM (HL-60 [1]) | inhibition [2] | inhibition at 0.1 µM (HL-60 [3]) | inhibition [4] | inhibition [5] | inhibition [6] | inhibition [7]

C[C@H]1COc2c(NCCCc3ccccn3)c(F)c(N)c3c(=O)c(C(=O)O)cn1c23
< 35%: inhibition at 0.1 µM (HL-60 [1]) | inhibition [2] | inhibition at 0.1 µM (HL-60 [3]) | inhibition [4] | inhibition [5] | inhibition [6] | inhibition [7]

C[C@H]1COc2c(NCCCn3cccn3)c(F)c(N)c3c(=O)c(C(=O)O)cn1c23
< 35%: inhibition at 0.1 µM (HL-60 [1]) | inhibition [2] | inhibition at 0.1 µM (HL-60 [3]) | inhibition [4] | inhibition [5] | inhibition [6] | inhibition [7]

C[C@H]1COc2c(NCCCn3cccn3)c(F)c(N)c3c(=O)c(C#N)cn1c23
< 35%: inhibition at 0.1 µM (HL-60 [1]) | inhibition [2] | inhibition at 0.1 µM (HL-60 [3]) | inhibition [4] | inhibition [5] | inhibition [6] | inhibition [7]

— ChEMBL document CHEMBL1938230, “6-Position optimization of tricyclic 4-quinolone-based inhibitors of glycogen synthase kinase-3β: discovery of nitrile derivatives with picomolar potency” (Bioorg Med Chem Lett, 2012)
